Laboratory results reported in ChEMBL document CHEMBL1201862, “PubChem BioAssay data set” (2004).
Activity calls are given as the source filed them.

Columns and labels:
[1] = Luminescence Cell-Based Dose Response HTS to Identify Activators of Luciferase Translation or Activity in H4 […] Cells. [Related pubchem assays: 1829 (Project Summary), 1814 (Primary HTS)]; assay type: functional
[2] = system: H4; assay: Luminescence Cell-Based Dose Response HTS to Identify Activators of 5'UTR Stem-Loop Driven Prion Protein mRNA Translation in H4 Neuroglioblastoma Cells. [Related pubchem assays: 1829 (Project Summary), 1814 (Primary HTS)]; assay type: functional; conditions: Homo sapiens
[3] = Luminescence Cell-Based Dose Confirmation HTS to Identify Activators of 5'UTR Stem-Loop Driven Alpha-Synuclein mRNA Translation in H4 Neuroglioblastoma Cells. [Related pubchem assays: 1829 (Project Summary), 1814 (Primary HTS)]; assay type: functional
[4] = molecular target: Cytochrome P450 2C9 (Homo sapiens, UniProt P11712)
Cytochrome P450 2C9, sequence (P11712 whole entry): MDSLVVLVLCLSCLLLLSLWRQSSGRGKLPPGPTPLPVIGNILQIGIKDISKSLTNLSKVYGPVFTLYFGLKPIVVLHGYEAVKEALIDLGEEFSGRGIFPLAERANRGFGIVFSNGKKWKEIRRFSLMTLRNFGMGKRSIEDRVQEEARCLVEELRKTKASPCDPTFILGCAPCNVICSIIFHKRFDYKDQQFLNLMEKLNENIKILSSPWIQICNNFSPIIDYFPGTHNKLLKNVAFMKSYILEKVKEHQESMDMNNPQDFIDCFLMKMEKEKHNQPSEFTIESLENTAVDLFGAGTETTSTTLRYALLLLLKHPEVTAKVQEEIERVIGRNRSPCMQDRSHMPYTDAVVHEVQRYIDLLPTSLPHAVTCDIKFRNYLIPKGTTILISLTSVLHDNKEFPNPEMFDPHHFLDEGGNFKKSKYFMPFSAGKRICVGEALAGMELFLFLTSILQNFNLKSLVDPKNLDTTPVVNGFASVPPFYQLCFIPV

[5] = molecular target: T1, Cytochrome P450 1A2 (Homo sapiens, UniProt P05177);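 also: PubChem cytochrome P450 panel assay, CYP1A2 panel member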
T1 sequence (P05177 whole entry): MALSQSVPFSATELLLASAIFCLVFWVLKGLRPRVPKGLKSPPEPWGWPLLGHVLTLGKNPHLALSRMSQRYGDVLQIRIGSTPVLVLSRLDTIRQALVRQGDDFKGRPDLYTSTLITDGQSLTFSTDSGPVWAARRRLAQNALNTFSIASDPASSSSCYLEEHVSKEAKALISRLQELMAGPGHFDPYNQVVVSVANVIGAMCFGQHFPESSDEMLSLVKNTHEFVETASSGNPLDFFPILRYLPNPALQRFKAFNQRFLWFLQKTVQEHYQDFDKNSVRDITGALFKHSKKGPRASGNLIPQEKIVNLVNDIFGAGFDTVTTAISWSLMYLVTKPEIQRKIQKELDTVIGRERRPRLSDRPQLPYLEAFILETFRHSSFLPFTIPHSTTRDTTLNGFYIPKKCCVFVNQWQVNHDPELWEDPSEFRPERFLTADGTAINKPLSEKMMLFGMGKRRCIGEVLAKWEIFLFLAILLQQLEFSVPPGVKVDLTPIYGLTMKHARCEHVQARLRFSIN

[6] = molecular target: Cytochrome P450 2D6 (Homo sapiens, UniProt P10635);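 also: CYP2D6 member of a cytochrome P450 panel assay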
Cytochrome P450 2D6, sequence (P10635 whole entry): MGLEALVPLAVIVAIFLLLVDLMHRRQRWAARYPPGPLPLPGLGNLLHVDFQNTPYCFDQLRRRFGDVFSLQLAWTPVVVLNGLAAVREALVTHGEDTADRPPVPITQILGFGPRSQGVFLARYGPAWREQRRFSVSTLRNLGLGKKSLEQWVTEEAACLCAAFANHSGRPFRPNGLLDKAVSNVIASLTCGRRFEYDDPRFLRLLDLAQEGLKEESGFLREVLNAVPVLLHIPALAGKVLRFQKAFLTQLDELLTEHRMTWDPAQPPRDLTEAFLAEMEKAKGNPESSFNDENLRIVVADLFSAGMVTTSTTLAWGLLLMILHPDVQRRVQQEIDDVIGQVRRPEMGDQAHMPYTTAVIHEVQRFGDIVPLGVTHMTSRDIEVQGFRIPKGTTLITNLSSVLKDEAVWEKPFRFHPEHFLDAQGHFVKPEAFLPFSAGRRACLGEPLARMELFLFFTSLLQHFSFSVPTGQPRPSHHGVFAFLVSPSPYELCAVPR

[7] = LGR2 antagonists, dose response, cell-based, HEK293, CRE-luciferase reporter, cherry pick, set 2 (AID 743343); assay type: functional;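 also: transfected cells were stimulated with diluted bursicon conditioned medium after compound addition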
[8] = MC4R antagonists, dose response, counter-screen for LGR2 antagonist project, cell-based, plate reader, cherry pick (AID 743444); assay type: functional;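 also: transfected HEK 293 cells stimulated with alpha-MSH peptide; potency of inhibitors of the alpha-MSH evoked signal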
[9] = molecular target: Cytochrome P450 2C19 (Homo sapiens, UniProt P33261); assay: Cytochrome panel assay with activity outcomes. Panel member name: p450-cyp2c19 Compounds with AC50 equal or less than 10 uM are considered active; assay type: functional
Cytochrome P450 2C19, sequence (P33261 whole entry): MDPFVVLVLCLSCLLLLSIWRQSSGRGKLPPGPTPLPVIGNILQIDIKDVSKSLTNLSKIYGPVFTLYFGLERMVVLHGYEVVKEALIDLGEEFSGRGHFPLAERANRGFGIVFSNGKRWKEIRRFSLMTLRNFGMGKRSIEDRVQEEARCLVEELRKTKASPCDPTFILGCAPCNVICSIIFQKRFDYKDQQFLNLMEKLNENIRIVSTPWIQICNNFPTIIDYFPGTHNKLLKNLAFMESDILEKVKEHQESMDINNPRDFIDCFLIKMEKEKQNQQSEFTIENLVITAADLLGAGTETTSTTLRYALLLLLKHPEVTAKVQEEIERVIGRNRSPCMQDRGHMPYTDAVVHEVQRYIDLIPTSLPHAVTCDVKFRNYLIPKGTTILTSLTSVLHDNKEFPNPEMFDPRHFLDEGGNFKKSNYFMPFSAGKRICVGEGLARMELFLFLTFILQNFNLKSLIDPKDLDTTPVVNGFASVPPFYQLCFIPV

[10] = cells; assay type: functional, cell-based
[11] = cells; assay type: functional, cell-based; remark: listed apart in the source
[12] = system: Streptococcus sp. 'group A'; assay: growth inhibition of control SK(-) GAS strain, dose response, counter-screen for streptokinase expression inhibitor project, luminescence, kanamycin, BacTiterGlo, confirmation (AID 1900); assay type: functional, organism-based
[13] = system: Streptococcus; assay: Group A Streptococcus viability loss, dose response, counter-screen for streptokinase expression inhibitor project, luminescence, BacTiterGlo (AID 1915); assay type: functional, organism-based;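 also: potency for reduction of bacterial viability or growth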
[14] = molecular target: T2, Streptokinase A (Streptococcus pyogenes serotype M1, UniProt P10520); assay: S. pyogenes streptokinase expression inhibitors, potency, dose response, plasminogen activation absorbance, OD405 (AID 1914); assay type: functional, Streptococcus pyogenes M1 GAS;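 also: secreted streptokinase activity via plasminogen activation per viability signal from cell pellet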
T2 sequence (P10520 whole entry): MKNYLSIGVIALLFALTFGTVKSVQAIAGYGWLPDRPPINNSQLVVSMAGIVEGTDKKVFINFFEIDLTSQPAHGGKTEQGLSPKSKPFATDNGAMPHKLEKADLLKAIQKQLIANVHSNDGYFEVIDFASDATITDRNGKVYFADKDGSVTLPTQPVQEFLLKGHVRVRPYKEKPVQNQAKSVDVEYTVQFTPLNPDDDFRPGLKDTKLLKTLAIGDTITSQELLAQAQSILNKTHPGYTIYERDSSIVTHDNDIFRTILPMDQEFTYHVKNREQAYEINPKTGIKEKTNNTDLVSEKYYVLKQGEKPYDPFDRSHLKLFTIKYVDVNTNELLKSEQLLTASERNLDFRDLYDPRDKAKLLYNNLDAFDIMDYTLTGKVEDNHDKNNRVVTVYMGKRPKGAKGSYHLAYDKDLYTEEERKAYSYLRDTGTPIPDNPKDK

[15] = Luminescence Cell-Based Dose Retest to Confirm Inhibitors of Cancer Stem Cells. [Related pubchem assays (depositor defined):AID2717, AID2721]; assay type: functional; conditions: Homo sapiens
[16] = control 3'UTR Renilla luciferase suppression, dose response, counter-screen for Shn3 inhibitor project, cell-based, Clone20-Shn3RL, cherry-picked (AID 624133); assay type: functional
[17] = Shn3 3'UTR reporter inhibitors, dose response, cell-based, Clone20 osteoblasts, firefly luciferase, cherry-picked (AID 624132); assay type: functional;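 also: firefly luciferase luminescence from reporter carrying the Shn3 3'UTR in osteoblasts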
[18] = growth suppression of PTEN-null colon cells, dose response, cell-based, HCT116 PTEN knockout (AID 1047); assay type: functional;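 also: HCT116 colon tumor cells with PTEN knocked out; cells exposed to compound for 60 hours before readout; potency for loss of cell viability measured by luminescence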
[19] = growth suppression of beta-catenin-knockout colon cells, dose response, cell-based, HCT116, human colon tumor (AID 1045); assay type: functional;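 also: HCT116 colon tumor cells with beta catenin knocked out; cells exposed to compound for 60 hours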
[20] = system: INS1; assay: beta cell apoptosis inhibitors, cytokine rescue, dose response, luminescence, retest (AID 449756); assay type: functional, cell-based; conditions: Rattus norvegicus;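 also: cell death triggered by IL-1 beta plus TNF-alpha plus IFN-gamma mixture; protective hits raise ATP signal compared with cytokine alone wells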
[21] = HepG2 cell cytotoxicity, dose response, cytotoxicity control for Shn3 inhibitor project, CellTiter-Glo, cherry-picked (AID 624134); assay type: functional, cell-based
[22] = molecular target: Cytochrome P450 3A4 (Homo sapiens, UniProt P08684);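 also: CYP3A4 tested as one member of a cytochrome P450 panel screen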
Cytochrome P450 3A4, sequence (P08684 whole entry): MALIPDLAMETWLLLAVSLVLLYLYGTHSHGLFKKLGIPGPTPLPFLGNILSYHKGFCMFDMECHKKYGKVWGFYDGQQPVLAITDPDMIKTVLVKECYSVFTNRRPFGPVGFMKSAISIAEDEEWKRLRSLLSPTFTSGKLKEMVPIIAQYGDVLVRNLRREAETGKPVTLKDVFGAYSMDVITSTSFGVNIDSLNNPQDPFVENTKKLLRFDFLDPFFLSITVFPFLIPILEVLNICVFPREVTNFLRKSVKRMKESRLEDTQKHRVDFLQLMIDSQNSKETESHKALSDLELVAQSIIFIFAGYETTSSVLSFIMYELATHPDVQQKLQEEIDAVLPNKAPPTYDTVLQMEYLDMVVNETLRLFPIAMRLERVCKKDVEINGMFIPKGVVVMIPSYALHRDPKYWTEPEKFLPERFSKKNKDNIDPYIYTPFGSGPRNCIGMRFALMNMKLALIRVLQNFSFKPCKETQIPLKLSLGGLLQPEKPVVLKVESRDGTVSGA

[23] = molecular target: T3, Corticotropin-releasing factor receptor 2/Corticotropin-releasing factor-binding protein (Homo sapiens, UniProt P24387+Q13324); assay: Dose Response confirmation of uHTS hits for small molecule antagonists of the CRF-binding protein and CRF-R2 receptor complex.; assay type: functional; conditions: read-out: IC50_Mean
T3 sequence (Q13324 whole entry): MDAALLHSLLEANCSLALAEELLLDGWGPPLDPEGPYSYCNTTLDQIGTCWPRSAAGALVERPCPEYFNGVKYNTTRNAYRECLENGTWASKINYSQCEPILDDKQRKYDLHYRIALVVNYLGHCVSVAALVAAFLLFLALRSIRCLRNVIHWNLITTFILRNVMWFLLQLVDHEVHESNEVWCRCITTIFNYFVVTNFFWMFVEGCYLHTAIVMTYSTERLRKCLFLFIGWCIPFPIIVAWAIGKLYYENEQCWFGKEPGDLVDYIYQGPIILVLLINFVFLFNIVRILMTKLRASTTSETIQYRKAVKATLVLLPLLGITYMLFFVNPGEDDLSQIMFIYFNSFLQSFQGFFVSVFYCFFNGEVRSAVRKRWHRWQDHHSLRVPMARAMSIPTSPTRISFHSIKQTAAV
T3 sequence (P24387 whole entry): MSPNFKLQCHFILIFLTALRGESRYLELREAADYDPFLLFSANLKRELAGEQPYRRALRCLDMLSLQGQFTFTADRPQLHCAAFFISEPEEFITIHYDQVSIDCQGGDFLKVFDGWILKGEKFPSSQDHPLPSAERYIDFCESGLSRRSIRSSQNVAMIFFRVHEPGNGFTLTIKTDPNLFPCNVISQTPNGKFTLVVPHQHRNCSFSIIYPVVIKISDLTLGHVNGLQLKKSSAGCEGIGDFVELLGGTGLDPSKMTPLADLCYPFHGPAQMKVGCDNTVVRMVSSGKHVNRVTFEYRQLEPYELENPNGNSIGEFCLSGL

[24] = molecular target: T3, Corticotropin-releasing factor receptor 2/Corticotropin-releasing factor-binding protein; assay: activators of CRF receptor 2 with binding protein – uHTS hits, confirmation (AID 602473); assay type: functional; conditions: read-out: EC50_Mean
[25] = HEK293T cytotoxicity, dose response, cytotoxicity control for miR-122 modulator project, cell-based, inhibitor set, cherry-pick, set 2 (AID 720697); assay type: functional
[26] = inhibitors of intracellular T. cruzi replication, confirmation, NIH3T3 host cells, beta-gal luminescence (AID 2044); assay type: functional, cell-based;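 also: intracellular parasites grown in NIH/3T3 mouse fibroblasts as host cells; luminescent beta-galactosidase reporter signal from transgenic T. cruzi replicating inside host cells; inhibitors lower the luminescence signal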
[27] = cytotoxicity toward NIH3T3 fibroblasts, dose response, counter-screen, cell-based, ATP luminescence, mouse fibroblasts (AID 2010); assay type: functional;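 also: cells exposed to compound for about 90 hours before reading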
[28] = miR-122 activators in hepatoma reporter cells, dose response, cell-based, Huh7 psiCHECK-miR122, Renilla luciferase, cherry-picked (AID 651956); assay type: functional;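 also: huh7 hepatoma cells stably carrying a psiCHECK-2 miR-122 sensor plasmid; renilla luciferase signal reporting endogenous miR-122 activity after 48 h compound exposure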
[29] = HepG2 cell cytotoxicity, dose response, cytotoxicity control, plate reader, cherry-pick, antagonist series (AID 743416); assay type: functional, cell-based
[30] = HEK293T cytotoxicity, dose response, cytotoxicity control for miR-122 modulator project, cell-based, activator set, cherry-pick (AID 720690); assay type: functional;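 also: HEK293T human cells scored for general mammalian cytotoxicity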

## CC(C)OC(=O)CC12CN(C)CC(CC(=O)OC(C)C)(CN(C)C1)C2=O
[1]
  EC50: 72.4 µM (active)
[2]
  EC50: 37 µM (active)
[3]
  EC50: 47.6 µM (active)
[4]
  AC50: inconclusive

## COc1ccc(S(=O)(=O)Nc2cccc(Cl)c2)cc1OC
[5]
  AC50: 31.6 µM (inconclusive)
[4]
  AC50: inconclusive

## COc1cc(/C=C/C(=O)Nc2cc(C(F)(F)F)ccc2Cl)cc(OC)c1OC
[6]
  AC50: 0.00562 µM (inconclusive)
[5]
  AC50: 15.8 µM (inconclusive)
[4]
  AC50: inconclusive

## Cc1c(NC(=O)c2ccc(-c3ccccc3)cc2)cccc1C(=O)O
[7]
  AC50: 17.1 µM (active)
[8]
  AC50: 13.5 µM (active)

## NS(=O)(=O)c1ccc(CNC(=O)/C=C/c2c(Cl)cccc2Cl)cc1
[9]; read-out: AC50
  AC50: 25.1 µM (inconclusive)
[4]
  AC50: inconclusive

## CC(C)(C)NC(=O)CN(Cc1ccc2c(c1)OCO2)C(=O)CNS(=O)(=O)c1ccc(F)cc1
[10]
  EC50: > 350 µM (not active)
[11]
  EC50: > 350 µM (not active)

## O=S(=O)(NCc1nnc2c(C(F)(F)F)cc(Cl)cn12)c1ccccc1
[12]
  EC50: > 150 µM (not active)
[10]
  EC50: > 350 µM (not active)
[13]
  EC50: > 150 µM (not active)
[11]
  EC50: > 350 µM (not active)
[14]
  EC50: > 150 µM (not active)

## Cc1nn(Cc2c(Cl)cccc2Cl)c(C)c1NC(=O)c1cn(-c2ccccc2)nc1-c1ccccc1
[15]
  AC50: 1.01 µM (active)
[12]
  EC50: 8.01 µM (active)
[16]
  AC50: 25.8 µM (active)
[17]
  AC50: 55 µM (active)
[18]
  EC50: 4.36 µM (active)
[19]
  EC50: 4.04 µM (active)
[13]
  EC50: 21.6 µM (active)
[14]
  EC50: > 150 µM (not active)
[20]
  AC50: 2.46 µM (active)

## O=C1CCCc2ccccc2N1Cc1ccc(F)cc1
[10]
  EC50: > 350 µM (not active)
[11]
  EC50: > 350 µM (not active)

## COc1cc(CC(=O)Nc2nc(-c3ccc(F)c(F)c3)cs2)cc(OC)c1OC
[21]
  AC50: 6.77 µM (active)
[16]
  AC50: 19.2 µM (active)
[17]
  AC50: 3.92 µM (active)
[20]
  AC50: 6.89 µM (active)

## O=c1c2ccccc2nnn1CSc1nnnn1-c1ccccc1
[6]
  AC50: 17.8 µM (inconclusive)
[22]
  AC50: 12.6 µM (inconclusive)
[5]
  AC50: 25.1 µM (inconclusive)
[4]
  AC50: inconclusive

## O=C(/C=C/c1cc2c(cc1Br)OCO2)NCc1ccc(Cl)cc1
[9]; read-out: AC50
  AC50: 17.8 µM (inconclusive)
[4]
  AC50: inconclusive

## COc1ccccc1C(=O)Nc1ccccc1SC(=O)c1ccccc1OC
[10]
  EC50: > 350 µM (not active)
[11]
  EC50: > 350 µM (not active)

## Cc1cc2nc(C)n(CCCN)c2cc1C.Cl
[23]
  IC50: > 47.1 µM (inactive)
[9]
  AC50: inconclusive
[4]
  AC50: inconclusive
[24]
  EC50: > 53 µM (inactive)

## O=C(CN1CCC(C(=O)c2ccc(Cl)cc2)CC1)Nc1ccc2c(c1)OCCO2
[10]
  EC50: > 350 µM (not active)
[11]
  EC50: > 350 µM (not active)

## CCCSCCCNC(=O)c1ccccc1NC(=O)C1=CSCCO1
[10]
  EC50: 297 µM (active)
[11]
  EC50: > 350 µM (not active)

## CC(C)CC(N)c1csc(NC(=O)c2cc(C(C)(C)C)nn2Cc2ccccc2)n1 (configuration not stated)
[21]
  AC50: 8.75 µM (active)
[16]
  AC50: 20.8 µM (active)
[17]
  AC50: 4.85 µM (active)

## COc1ccc(CN2CCOC2=O)cc1OC
[25]
  AC50: 9.25 µM (active)

## CC1=Nc2nnnn2C(c2cccnc2)/C1=C(\O)OC1CCCCC1 (configuration not stated)
[21]
  AC50: > 70 µM (inactive)
[26]
  EC50: 1.79 µM (active)
[16]
  AC50: 3.92 µM (active)
[17]
  AC50: 3.23 µM (active)
[27]
  EC50: > 60 µM (not active)

## C/C=C/c1ccc([C@H]2[C@@H](CNC(=O)CC)N(Cc3ccccn3)[C@H]2CO)cc1
[25]
  AC50: 0.454 µM (active)

## C[C@H](CO)N1C[C@H](C)[C@@H](CN(C)Cc2ccc(Oc3ccccc3)cc2)Oc2ncc(-c3cncnc3)cc2C1=O
[28]
  AC50: 26 µM (active)
[25]
  AC50: 0.511 µM (active)

## CC(=O)N1CCCC(c2cc(C(=O)Nc3ccccc3)no2)C1 (configuration not stated)
[29]
  AC50: > 52 µM (inactive)
[7]
  AC50: 2.13 µM (active)
[8]
  AC50: 1.98 µM (active)

## CN1C(=O)c2cc(NC(=O)Nc3ccccc3F)ccc2OC[C@@H]2O[C@@H](CC(=O)NCc3ccc(-c4ccccc4)cc3)CC[C@@H]21
[30]
  AC50: 47.9 µM (active)
